Measurements as given in ChEMBL document CHEMBL1127832, “Furoxans as nitric oxide donors. 4-Phenyl-3-furoxancarbonitrile: thiol-mediated nitric oxide release and biological evaluation” (J Med Chem, 1994).

Columns and labels:
Rattus norvegicus [1] = species on record: Rattus norvegicus; test: Compound was tested for its vasodilator effects on endothelium-denuded strips of rat aorta precontracted with noradrenaline; type: functional
Rattus norvegicus [2] = species on record: Rattus norvegicus; test: Compound was tested for percent recovery of noradrenergic tone after washing aortic preparations with fresh Kreb's buffer; type: functional; settings: Aorta

O=[N+]([O-])OCC(CO[N+](=O)[O-])O[N+](=O)[O-] [NITROGLYCERIN]
EC50 (Rattus norvegicus [1]): 22 nM

N#Cc1c(-c2ccccc2)no[n+]1[O-] [FUROXAN]
Recovery (Rattus norvegicus [2]): 66%
